Earlier results, collected in patent US20060280700A1, “Oral hygiene system to fight the effects of aging on the mouth, gums, and teeth” (priority 2005, published 2006).

Experiments:
[1] = test system: oral squamous carcinoma cells; settings: for inhibition in growth of oral squamous carcinoma cells: in culture
Streptococcus mutants = settings: rodent model inoculated with Streptococcus mutants

O=C(O[C@@H]1Cc2c(O)cc(O)cc2O[C@H]1c1ccc(O)c(O)c1)c1cc(O)c(O)c(O)c1 [(−)-catechin gallate]
inhibition of the activity of Pophyromonas proteinases (Pophyromonas proteinases): significantly inhibited

Oc1cc(O)c2c(c1)O[C@H](c1cc(O)c(O)c(O)c1)[C@H](O)C2 [EGC, (−) epigauocatechin]
inhibition of DNA synthesis [1]: dose-dependent inhibition | inhibition in growth of oral squamous carcinoma cells [1]: significant dose dependent inhibition

O=C(O[C@@H]1Cc2c(O)cc(O)cc2O[C@@H]1c1cc(O)c(O)c(O)c1)c1cc(O)c(O)c(O)c1 [EGCG, (−)-epigallocatechin-3-gallate]
inhibition of the activity of Pophyromonas proteinases (Pophyromonas proteinases): significantly inhibited | inhibition of DNA synthesis [1]: dose-dependent inhibition | inhibition in growth of oral squamous carcinoma cells [1]: significant dose dependent inhibition

OC[C@@H](O)[C@H](O)[C@@H](O)CO [Xylitol]
cariogenic action (Streptococcus mutants): little or no cariogenic action

(−)-epicatechin-3-gallate [ECG]
inhibition of the activity of Pophyromonas proteinases (Pophyromonas proteinases): significantly inhibited | inhibition of DNA synthesis [1]: dose-dependent inhibition | inhibition in growth of oral squamous carcinoma cells [1]: significant dose dependent inhibition

(−)-gallocatechin gallate
inhibition of the activity of Pophyromonas proteinases (Pophyromonas proteinases): significantly inhibited
